Measured values from patent US20080098491A1, “MOUSE MODELS TO STUDY CACHEXIA” (ZOLTAN LABORATORIES LLC, priority 2006, published 2008).

Key:
MXT mouse mammary tumor [1] = experiment: Cisplatin-treated MXT mouse mammary tumor model, CCDTHT (Example 10); format: in vivo; settings: every second day from day 7: cisplatin 3-mg/kg i.p., CCDTHT 4.6-mg/kg s.c., highly purified PALP 14-mg/kg s.c.
From the text: (§1) The B16 mouse melanoma and MXT mouse mammary tumors were developed in first generation hybrid BDF1 (C57 B1 female×DBA/2 male) adult female mice kept at specified pathogen free (SPF) hygienic level. These models were chosen for these experiments because these mice have the complete immune system, and both tumors grow very rapidly. To develop the tumors, B16 and MXT tumor tissue fragments of about 0.1-cm^3 were surgically implanted subcutaneously into the intrascapular region to develop the tumors. Each tumor fragment contained about 1-1.5×10^6 cells. The animals were kept in macrolon cages on ventilated rack at 22-24° C. (50-60% humidity) with lighting regimen of 12/12 h light/dark. The animals had free access to tap water and were fed with sterilized standard diet (Charles River VRF1, Germany) ad libitum. The animals were taken care of according to the “Guiding Principle for the care and use of Animals” based upon the Helsinki declaration and they were approved by the local ethical committee.
(§2) In case of both tumor models the tumor size was usually in the range of 0.2 to 0.5-g when treatments started 7-11 days after tumor implantation; the mice were selected so that in the same treatment group the difference in tumor size was no greater than 0.1 gram. In some experiments, the test proteins were suspended in physiological saline and injected in 50-μl volume subcutaneously in the vicinity of tumor (within 1-cm of tumor margin). In other experiments, the test proteins were dispersed in Vaselinum cholesteratum and used topically; 150-mg cream was applied on the tumor and the vicinity of tumor area (with about 0.5-cm of the tumor margin). The tumor volume was determined by using calipers; this technique is well known to one having ordinary skill in the art. Tumor volume was calculated according to the generally accepted formula: V=a^2×b×7r/6, where “a” and “b” mean the shortest and longest diameter, respectively, of the measured tumor.
The mouse MXT mammary tumor was developed as described in Example 3. In the first group, animals remained untreated during the whole observation period. In the second group, starting on the 7th day after tumor implantation, mice were administered 3-mg per 1-kg of cisplatin i.p. 9-times every second day. In the third group, starting on the 7th day after tumor implantation, mice were simultaneously administered 3-mg per 1-kg of cisplatin i.p. and 4.6-mg per 1-kg of CCDTHT s.c. In the fourth group, starting on the 7th day after tumor implantation, mice were simultaneously administered 3-mg per 1-kg of cisplatin i.p. as well as 4.6-mg per 1-kg of CCDTHT s.c. and 14-mg per 1-kg of highly purified PALP s.c. Each treatment was performed 9-times on every second day. Each group included 7 animals. The mean values for total weight, tumor weight and body weight (the difference between total and tumor weight) are shown in TABLE 8.

MXT mouse mammary tumor [2] = experiment: Cisplatin-treated MXT mouse mammary tumor model, purified PALP, AT, holo-TF, apo-TF (Example 9, Experiment 2); format: in vivo; settings: every second day from day 7 (6-times): cisplatin 3-mg/kg i.p., proteins 12-mg/kg s.c.
From the text: as §1, §2
Experiment 2. The commercial PALP used in this model for Exp. 1 was composed of PALP (˜10%), TF (˜12%), AT (˜30%), albumin (˜35%) and the degradation products of TF (˜13%). […] In this experiment, it was determined whether the other two major proteins, i.e. TF and AT, present in the commercial PALP preparation in addition to PALP, also influence cisplatin-induced loss of body weight or not. The mouse MXT mammary tumor was developed as described in Example 3. In the first group, animals remained untreated during the whole observation period. In the second group, starting on the 7th day after tumor implantation, mice were administered 3-mg per 1-kg of cisplatin i.p. 6-times every second day. In the third group, starting on the 7th day after tumor implantation, mice were simultaneously administered 3-mg per 1-kg of cisplatin i.p. and 12-mg per 1-kg of purified PALP s.c. In the fourth group, starting on the 7th day after tumor implantation, mice were simultaneously administered 3-mg per 1-kg of cisplatin i.p. and 12-mg per 1-kg of highly purified AT s.c. In the fifth group, starting on the 7th day after tumor implantation, mice were simultaneously administered 3-mg per 1-kg of cisplatin i.p. and 12-mg per 1-kg of commercial holo-TF (h-TF, T 0665 in the Sigma catalog) s.c. In the sixth group, starting on the 7th day after tumor implantation, mice were simultaneously administered 3-mg per 1-kg of cisplatin i.p. and 12-mg per 1-kg of commercial apo-TF (a-TF, T 2036 in the Sigma catalog) s.c. Holo-TF contained 1,100-1,600 μg iron per gram protein while apo-TF was essentially iron-free. Each treatment with the proteins was also performed 6-times on every second day simultaneously with the cisplatin treatment. Each group included 7 animals. The mean values for total weight, tumor weight and body weight (the difference between total and tumor weight) are shown in gram in TABLE 7.

## N.N.[Cl][Pt][Cl] [Cisplatin, cisplatin]
MXT mouse mammary tumor [1]; day 7 after transplantation
  Body weight (total weight minus tumor weight): 21.95 g
  Total weight: 22.20 g
  Tumor weight: 0.25 g
MXT mouse mammary tumor [1]; day 9 after transplantation
  Body weight (total weight minus tumor weight): 22.45 g
  Total weight: 23.00 g
  Tumor weight: 0.55 g
MXT mouse mammary tumor [1]; day 11 after transplantation
  Body weight (total weight minus tumor weight): 21.75 g
  Total weight: 23.10 g
  Tumor weight: 1.35 g
MXT mouse mammary tumor [1]; day 15 after transplantation
  Body weight (total weight minus tumor weight): 20.25 g
  Total weight: 22.90 g
  Tumor weight: 2.65 g
MXT mouse mammary tumor [1]; day 17 after transplantation
  Body weight (total weight minus tumor weight): 17.85 g
  Total weight: 21.60 g
  Tumor weight: 3.75 g
MXT mouse mammary tumor [1]; day 21 after transplantation
  Body weight (total weight minus tumor weight): 15.95 g
  Total weight: 20.60 g
  Tumor weight: 4.65 g
MXT mouse mammary tumor [2]; day 7 after transplantation
  Body weight (total weight minus tumor weight): 22.25 g
  Total weight: 22.6 g
  Tumor weight: 0.35 g
MXT mouse mammary tumor [2]; day 11 after transplantation
  Body weight (total weight minus tumor weight): 21.25 g
  Total weight: 22.7 g
  Tumor weight: 1.45 g
MXT mouse mammary tumor [2]; day 13 after transplantation
  Body weight (total weight minus tumor weight): 20.05 g
  Total weight: 21.9 g
  Tumor weight: 1.85 g
MXT mouse mammary tumor [2]; day 15 after transplantation
  Body weight (total weight minus tumor weight): 18.1 g
  Total weight: 20.8 g
  Tumor weight: 2.7 g
MXT mouse mammary tumor [2]; day 18 after transplantation
  Body weight (total weight minus tumor weight): 16.8 g
  Total weight: 20.3 g
  Tumor weight: 3.5 g
